Measured values reported in ChEMBL document CHEMBL1136153, “2-oxoglutarate analogue inhibitors of HIF prolyl hydroxylase” (Bioorg Med Chem Lett, 2003).
pIC50: −log10 of the molar value.

Assay: Inhibitory concentration against oxoglutarate oxygenase was determined

Work on `O=C(O)CCC(S)C(=O)O` (stereo unspecified) yielded a pIC50 of 3.92.
